This is an account of results in ChEMBL document CHEMBL1201862, “PubChem BioAssay data set” (2004).

This assay in a line: Vero E6 cell cytotoxicity, dose response, cytotoxicity control for non-replicating M. tuberculosis project, secondary assay (AID 492998). It counts as functional, VeroE6. To be noted: Vero C1008.

Calls of active or inactive are those of the source. No rule for the calls is given here.

`O=C(Cc1ccc([N+](=O)[O-])cc1)N/N=C/c1ccc([N+](=O)[O-])o1`: the 50% cytotoxic concentration (CC50) (usually the concentration giving 50% cytotoxicity) is > 20 µM (active).
